Results: patent publication US10730882B2, “2-aminoquinazoline derivatives as P70S6 kinase inhibitors” (SENTINEL ONCOLOGY LIMITED, priority 2015, dated 2020)
Read-outs that look alike come from different tables or passages of the source.

What was measured:
p70S6K (h) = p70S6K (h) (Homo sapiens (Human), UniProt P23443); test: p70S6K (h) kinase assay (radiometric, [γ-33P-ATP]); type: biochemical; conditions: read-out: (a) p70S6K1 IC50
Experimental: (a) Determination of p70S6 Inhibitory Activity
The ability of compounds of the invention to inhibit P70S6 kinase may be determined using the protocol below.
20 mM MOPS, 1 mM EDTA, 0.01% Brij-35, 5% Glycerol, 0.1% b-mercaptoethanol, 1 mg/mL BSA
In a final reaction volume of 25 μL, p70S6K (h) (5-10 mU) is incubated with 8 mM MOPS pH 7.0, 0.2 mM EDTA, 100 μM KKRNRTLTV, 10 mM Mg acetate and [γ-33P-ATP](specific activity approx. 500 cpm/pmol, concentration as required). The reaction is initiated by the addition of the MgATP mix. After incubation for 40 minutes at room temperature, the reaction is stopped by the addition of 5 μL of a 3% phosphoric acid solution. 10 μL of the reaction mixture is then spotted onto a P30 filtermat and washed three times for 5 minutes in 75 mM phosphoric acid and once in methanol prior to drying and scintillation counting.

[1] = in vivo cassette mouse model: brain and plasma concentrations following oral dosing; conditions: male CD-1 mice, 2.5 mg/kg per compound; for Kp at 3 h: brain and plasma, read-out: (b) Brain:Plasma ratio at 3 hours
Experimental: (b) Evaluation of Brain and Plasma Concentrations in an In Vivo Cassette Mouse Model
The compounds of this invention were evaluated in an in vivo cassette mouse model to determine brain and plasma concentrations following oral dosing. This is an industry-standard and recognised means to assess brain penetration of small molecules (for recent literature article, refer to: in vitro permeability analysis, pharmacokinetic and brain distribution study in mice of imperatorin, isoimperatorin and cnidilin in Radix Angelicae Dahuricae, Fitoterapia, Volume 85, March 2013, Pages 144-153). It is also recognised that higher brain concentrations (and higher ratios of brain:plasma concentration) lead to greater exposure in the brain—this is clearly advantageous if the brain is the site of action.
For a single cassette study, male CD-1 mice were used (n=3 per timepoint, three timepoints: 1.0 hr, 3.0 hr and 8.0 hr).
5 compounds were dosed PO per cassette (dose level 2.5 mg/kg per compound, dose conc. 0.25 mg/ml, dose volume 10.0 ml/kg).
Formulation used to solubilize compounds: 10% DMSO/90% hydroxypropyl-β-cyclodextrin (20% w/v aqueous)
Sampling was terminal and plasma and brain matrices were generated. To prepare plasma samples, protein was precipitated using acetonitrile. To prepare brain samples, homogenisation and protein precipitation was performed with acetonitrile. Samples were analysed using HPLC-TOF MS using electrospray ionisation.
The brain and plasma concentrations and brain-plasma ratios observed for the compounds tested are set out in the table below.

MDA-MB-231 cells = test: in vivo model of triple negative breast cancer (TNBC): tumour initiation and metastasis; design: species or system female athymic nude mice
Description: (c) Evaluation of Efficacy of Compounds in Counter-Acting Tumour Initiation and Metastasis in an In Vivo Model of Triple Negative Breast Cancer (TNBC)
It is known that S6K1 has a crucial role in the recurrence of TNBC cancers following surgery, mainly through the activity of S6K1 in promoting survival of cancer cells in the host via phosphorylation and activation of the anti-apoptotic protein Bcl2 and of Gli1 (Belletti 2014). In addition, S6K1 promotes metastasis of TNBC cells (Akar 2010, Hung 2014).
In order to test the efficacy of an inhibitor of S6K1 in an in vivo model of tumour initiation and metastasis, the following experiment was established:
A total of 22 female athymic nude mice (Hsd:Athymic Nude-Foxn1^nu) were purchased from Harlan (UK) and acclimatised for 7 days prior to study commencement. Animals were housed in IVC cages (5 per cage) with individual mice identified by ear punch. All animals were allowed free access to a standard certified commercial diet and sanitised water during the study. The holding room was maintained under standard conditions: 20-24° C., 40-70% humidity and a 12 h light/dark cycle.
On day −1, animals were randomly assigned to treatment groups as indicated in the table below, and drug treatment commenced. On day 0, MDA-MB-231 cells (1×10^6 in matrigel) were implanted into the second mammary fat pad.
The dosing route was PO and the formulation was as follows: 10% DMSO/90% hydroxypropyl-β-cyclodextrin (20% w/v aqueous).
During the experiment, the following outcome measures were assessed:
(1) Time to palpation of tumour (latency) (2) tumour volume (3) tumour and organ weights as a measure of metastasis (4) visual appearance of metastatic nodules in the lungs.
At necroscopy the lungs of the vehicle and treated animals were examined for presence of metastatic nodules: […]

FXS mice (Fmr1 KO) = test: audiogenic seizure assay (AGS), in vivo model of Fragile X Syndrome
Description: (d) Evaluation of Compounds in the Audiogenic Seizure Assay, an In Vivo Model of Fragile X Syndrome (FXS)
Seizures occur in conjunction with FXS and autism in up to one-quarter of children with these disorders (Berry-Kravis E (2002) Epilepsy in fragile X syndrome. Dev. Med. Child Neurol. 44(11):724-728). […] The audiogenic seizure assay (AGS) is a well-documented mouse model of FXS (Audiogenic seizures susceptibility in transgenic mice with fragile X syndrome, Epilepsia. 2000 January; 41(1):19-23). In such a model it is possible to dose compounds to observe effects on susceptibility of the mice to audiogenic seizures. The following AGS experiment was set up to test the efficacy of compounds of this application:
The following experiment design was used:
Strain of FXS mouse used: FVB background
Vehicle used: 10% DMSO/90% hydroxypropyl-β-cyclodextrin (20% w/v aqueous)
Animals were assessed in AGS following 7 consecutive days of dosing.
The experimental chamber consisted of a plastic cage of dimensions 25×25×47 cm in which a doorbell (Electrical bell Heath Zenith, model 172C-A) had been mounted on the cage roof.
Mice were taken from their housing room one by one and transferred into the experimental chamber and allowed to explore the novel environment (basal noise […]) for a period of 30 seconds after which point the bell was rung (124 dB) for a period of 60 seconds.
The resulting motor responses were classified using a scale modified from the one originally described by Jobe et al. (1973): no response (NR: pause or continuous exploration), wild running (WR), seizure (S) or respiratory arrest and/or death (RA). The motor response rate is defined as the percentage of animals per group responding to the stimulus.

[2] = brain, read-out: (b) Brain conc. at 3 hours
[3] = plasma, read-out: (b) Plasma conc. at 3 hours
[4] = mono-HCl salt, 100 mg/kg p.o. BID, 21 days, compared to control
[5] = FXS (Fmr1 KO) mice, n=10, 50 mg/kg QD x 7 PO, mono-HCl salt, bell 124 dB for 60 seconds
[6] = FXS mice, FVB background, following 7 consecutive days of dosing

Sequence of p70S6K (h) (P23443 whole entry): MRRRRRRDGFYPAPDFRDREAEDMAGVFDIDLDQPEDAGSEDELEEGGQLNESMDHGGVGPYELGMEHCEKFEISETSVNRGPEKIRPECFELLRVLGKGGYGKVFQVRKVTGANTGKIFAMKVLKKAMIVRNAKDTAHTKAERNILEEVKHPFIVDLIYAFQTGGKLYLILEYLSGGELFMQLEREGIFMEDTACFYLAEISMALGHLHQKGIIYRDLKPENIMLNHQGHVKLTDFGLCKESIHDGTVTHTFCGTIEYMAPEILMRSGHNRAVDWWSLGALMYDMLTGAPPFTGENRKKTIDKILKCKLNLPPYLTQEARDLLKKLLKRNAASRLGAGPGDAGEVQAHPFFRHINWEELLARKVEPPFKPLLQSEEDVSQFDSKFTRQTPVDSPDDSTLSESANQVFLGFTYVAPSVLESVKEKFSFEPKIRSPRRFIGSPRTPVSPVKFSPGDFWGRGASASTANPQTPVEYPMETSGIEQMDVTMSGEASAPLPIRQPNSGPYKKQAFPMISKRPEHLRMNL

IC50 (p70S6K (h)) [nM] | Kp at 3 h [1] | concentration at 3 h [1, 2] [nM] | concentration at 3 h [1, 3] [nM] | Compound | Mean no. of lung nodules per animal (MDA-MB-231 cells; 100 mg/kg BID x 21, lungs examined at necroscopy, mono-HCl salt) | metastatic burden in the lungs (MDA-MB-231 cells; at necroscopy, spontaneous metastasis from a TNBC primary tumour) | tumour weight (MDA-MB-231 cells; day 21, mono-HCl salt, 100 mg/kg p.o. BID, compared to vehicle) | weight of liver (MDA-MB-231 cells; day 21, mono-HCl salt, 100 mg/kg p.o. BID, compared to vehicle treated group) | rate of incidence of tumour (MDA-MB-231 cells; [4]) | time until appearance (palpation) of tumour (MDA-MB-231 cells; [4]) | tumour volume (MDA-MB-231 cells; [4]) | NR (no response: pause or continuous exploration), number of animals (FXS mice (Fmr1 KO); [5]) | RA (respiratory arrest and/or death), number of animals (FXS mice (Fmr1 KO); [5]) | S (seizure), number of animals (FXS mice (Fmr1 KO); [5]) | WR (wild running), number of animals (FXS mice (Fmr1 KO); [5]) | incidence of audiogenic seizures (FXS mice (Fmr1 KO); [6]) | severity of response (audiogenic seizure) (FXS mice (Fmr1 KO); [6])
10 | 4 | 2420 | 600 | C[C@@H](Nc1ncc2cc(-c3ncnc4[nH]ncc34)ccc2n1)c1ccc(F)c(F)c1 [Example 19, [(R)-1-(3,4-Difluoro-phenyl)-ethyl]-[6-(1H-pyrazolo[3,4-d]pyrimidin-4-yl)-quinazolin-2-yl]-amine] |  |  |  |  |  |  |  |  |  |  |  |  | 
15 | 2.6 | 1070 | 420 | C[C@@H](Nc1ncc2cc(-c3ncnc4[nH]ncc34)ccc2n1)c1ccccc1F [Example 28, [(R)-1-(2-Fluoro-phenyl)-ethyl]-[6-(1H-pyrazolo[3,4-d]pyrimidin-4-yl)-quinazolin-2-yl]-amine] |  |  |  |  |  |  |  |  |  |  |  |  | 

Compound | IC50 (p70S6K (h)) [nM] | Kp at 3 h [1] | concentration at 3 h [1, 2] [nM] | concentration at 3 h [1, 3] [nM] | Mean no. of lung nodules per animal (MDA-MB-231 cells; 100 mg/kg BID x 21, lungs examined at necroscopy, mono-HCl salt) | metastatic burden in the lungs (MDA-MB-231 cells; at necroscopy, spontaneous metastasis from a TNBC primary tumour) | tumour weight (MDA-MB-231 cells; day 21, mono-HCl salt, 100 mg/kg p.o. BID, compared to vehicle) | weight of liver (MDA-MB-231 cells; day 21, mono-HCl salt, 100 mg/kg p.o. BID, compared to vehicle treated group) | rate of incidence of tumour (MDA-MB-231 cells; [4]) | time until appearance (palpation) of tumour (MDA-MB-231 cells; [4]) | tumour volume (MDA-MB-231 cells; [4]) | NR (no response: pause or continuous exploration), number of animals (FXS mice (Fmr1 KO); [5]) | RA (respiratory arrest and/or death), number of animals (FXS mice (Fmr1 KO); [5]) | S (seizure), number of animals (FXS mice (Fmr1 KO); [5]) | WR (wild running), number of animals (FXS mice (Fmr1 KO); [5]) | incidence of audiogenic seizures (FXS mice (Fmr1 KO); [6]) | severity of response (audiogenic seizure) (FXS mice (Fmr1 KO); [6])
C[C@@H](Nc1ncc2cc(-c3ncnc4[nH]ncc34)ccc2n1)c1ccccc1 [Example 1, ((R)-1-Phenyl-ethyl)-[6-(1H-pyrazolo[3,4-d]pyrimidin-4-yl)-quinazolin-2-yl]-amine] | 13 | 2.7 | 1600 | 580 | 0 | effective in reducing the metastatic burden in the lungs | weighed significantly less | reduction in weight of liver | decreases the rate of incidence | delays time until appearance (palpation) of tumour | significant reduction in volume of tumours | 9 | 0 | 0 | 1 | reduced | reduced
